Reference: patent publication US7179627B2, “Cyclooxygenase variants and methods of use” (Brigham Young University, priority 2001, dated 2007)
Like-named read-outs stand apart in the source and are kept apart here.

Tests used:
mouse COX-2 = biological target: T1, mouse COX-2 (Mus musculus, UniProt Q05769); test: COX activity (PGE2 formation by RIA) in insect cells expressing COX-2, drug inhibition; type: cell-based
T1 construct: expressed in transfected cells; host or cells: Sf9 insect cells infected with recombinant baculovirus
T1 sequence (Q05769 18-604): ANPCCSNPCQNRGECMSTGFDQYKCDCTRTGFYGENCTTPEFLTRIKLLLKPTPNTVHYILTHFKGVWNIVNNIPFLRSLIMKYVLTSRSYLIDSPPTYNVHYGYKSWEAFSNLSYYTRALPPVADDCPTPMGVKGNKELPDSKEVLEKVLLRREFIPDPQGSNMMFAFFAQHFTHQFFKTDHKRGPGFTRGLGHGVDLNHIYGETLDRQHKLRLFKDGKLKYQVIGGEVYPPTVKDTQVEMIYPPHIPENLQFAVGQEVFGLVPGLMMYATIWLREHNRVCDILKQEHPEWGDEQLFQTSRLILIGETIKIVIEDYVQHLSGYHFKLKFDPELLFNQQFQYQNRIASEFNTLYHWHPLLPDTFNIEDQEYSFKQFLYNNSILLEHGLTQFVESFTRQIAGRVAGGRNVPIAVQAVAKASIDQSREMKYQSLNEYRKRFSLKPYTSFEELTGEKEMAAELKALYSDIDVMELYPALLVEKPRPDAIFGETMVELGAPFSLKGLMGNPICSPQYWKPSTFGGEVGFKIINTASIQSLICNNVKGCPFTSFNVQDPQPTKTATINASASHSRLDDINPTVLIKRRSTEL
Procedure: (§1) Both COX-3 and PCOX-1a were cloned into the baculovirus expression vector pBlueBac 4.5/V5-His (Invitrogen). Sf9 cells (˜1×10^6) were infected with viral stocks at a multiplicity of infection (MOI) of 3 for expression of COX-3, PCOX-1a, mouse COX-1 and mouse COX-2.
(§2) Sf9 cells were infected with a high titer viral stock at a MOI of3 and cultured for 48 hr. Infected cells expressing COX-3 were aliquoted into tubes (˜1.5×10^6 cells) and centrifuged (1000×g, 5 min). The supernatant was discarded and the cell pellet resuspended in 100 μl serum-free media containing the drug to be tested and preincubated at room temperature for 30 minutes. […] Samples were then centrifuged and 100 μl of the supernatant was assayed for COX activity by RIA for PGE2. Assays were performed multiple times in triplicate. Inhibition curves were constructed and IC50 values were determined using Prism® 3.0 (GraphPad, San Diego).

COX-3 [1] = biological target: T2, COX-3 (Canis lupus familiaris, UniProt Q8HZR1, E597Q); test: COX activity (PGE2 formation by RIA) in insect cells expressing COX-3, drug inhibition; type: cell-based, canine
T2 construct: V5-His (vector name only); expressed in transfected cells; host or cells: Sf9 insect cells infected with recombinant baculovirus (pBlueBac 4.5/V5-His)
T2 sequence (Q8HZR1 1-633 isoform Q8HZR1-2 E627Q): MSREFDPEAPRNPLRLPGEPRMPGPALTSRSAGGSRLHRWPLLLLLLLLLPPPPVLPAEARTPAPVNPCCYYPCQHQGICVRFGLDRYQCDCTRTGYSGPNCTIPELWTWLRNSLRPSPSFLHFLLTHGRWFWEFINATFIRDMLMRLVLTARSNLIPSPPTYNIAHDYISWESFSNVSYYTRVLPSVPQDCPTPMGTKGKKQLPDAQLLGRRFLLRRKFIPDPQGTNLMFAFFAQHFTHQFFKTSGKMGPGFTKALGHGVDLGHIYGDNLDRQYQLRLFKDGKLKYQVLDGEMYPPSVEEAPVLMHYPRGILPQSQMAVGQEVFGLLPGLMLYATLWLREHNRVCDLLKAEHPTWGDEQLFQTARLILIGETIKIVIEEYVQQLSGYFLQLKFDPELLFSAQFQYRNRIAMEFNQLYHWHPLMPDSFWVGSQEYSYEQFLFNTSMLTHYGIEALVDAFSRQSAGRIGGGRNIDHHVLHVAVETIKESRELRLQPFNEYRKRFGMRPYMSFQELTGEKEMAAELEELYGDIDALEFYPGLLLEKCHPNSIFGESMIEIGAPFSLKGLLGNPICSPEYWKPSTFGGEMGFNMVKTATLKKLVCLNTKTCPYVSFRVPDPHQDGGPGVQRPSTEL
Procedure: as §1, §2

mouse COX-1 = biological target: T3, mouse COX-1 (Mus musculus, UniProt P22437); test: COX activity (PGE2 formation by RIA) in insect cells expressing COX-1, drug inhibition; type: cell-based
T3 construct: expressed in transfected cells; host or cells: Sf9 insect cells infected with recombinant baculovirus
T3 sequence (P22437 27-602): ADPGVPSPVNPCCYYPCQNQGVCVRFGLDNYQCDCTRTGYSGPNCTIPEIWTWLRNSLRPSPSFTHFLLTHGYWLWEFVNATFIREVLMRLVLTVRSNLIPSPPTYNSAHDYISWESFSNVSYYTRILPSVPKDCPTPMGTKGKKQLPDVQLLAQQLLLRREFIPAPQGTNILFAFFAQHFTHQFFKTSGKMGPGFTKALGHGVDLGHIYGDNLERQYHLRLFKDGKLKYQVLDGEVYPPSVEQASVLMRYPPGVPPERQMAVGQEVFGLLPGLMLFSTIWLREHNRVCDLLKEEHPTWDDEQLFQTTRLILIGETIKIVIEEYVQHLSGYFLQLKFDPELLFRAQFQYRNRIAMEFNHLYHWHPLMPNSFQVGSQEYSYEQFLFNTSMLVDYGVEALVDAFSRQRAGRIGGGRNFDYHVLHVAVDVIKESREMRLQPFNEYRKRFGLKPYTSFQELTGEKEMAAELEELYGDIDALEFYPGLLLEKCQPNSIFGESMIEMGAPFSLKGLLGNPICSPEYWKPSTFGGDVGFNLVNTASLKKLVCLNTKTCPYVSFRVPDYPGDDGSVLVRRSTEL
Procedure: as §1
Sf9 cells were infected with a high titer viral stock at a MOI of3 and cultured for 48 hr. Infected cells expressing COX-3 were aliquoted into tubes (˜1.5×10^6 cells) and centrifuged (1000×g, 5 min). The supernatant was discarded and the cell pellet resuspended in 100 μl serum-free media containing the drug to be tested and preincubated at room temperature for 30 minutes. Arachidonic acid (100 μl, final concentration 5 or 30 μM) was then added, mixed and incubated (37° C., 10 min). Samples were then centrifuged and 100 μl of the supernatant was assayed for COX activity by RIA for PGE2. Assays were performed multiple times in triplicate. Inhibition curves were constructed and IC50 values were determined using Prism® 3.0 (GraphPad, San Diego).

[2] = active breakdown product of dipyrone; cited from earlier work
COX-3 [3] = test: COX activity of intact tunicamycin-treated insect cells by RIA; type: cell-based, canine; details: 10 μg/ml, harvested after 48 hr
Procedure: Tunicamycin was added to a final concentration of 10 μg/ml to insect cells 1 hr after infection with baculovirus constructs. The cells were cultured and harvested after 48 hr. COX activity of intact cells was determined by radioimmunoassay (RIA) (Salmon, 1978). COX activity in intact Tu-treated cells was compared with activity in untreated cells infected with the appropriate virus (MOI=3).

[4] = 30 μM arachidonic acid, insect cells, PGE2 by RIA, read-out: IC50, μM COX-3
[5] = 30 μM arachidonic acid, insect cells, PGE2 by RIA, read-out: IC50, μM COX-2
[6] = 30 μM arachidonic acid, insect cells, PGE2 by RIA, read-out: IC50, μM COX-1
[7] = substrate conditions of 30 μM arachidonic acid, read-out: IC50 value for COX-3

With `Cc1cc(=O)n(-c2ccccc2)n1C` [Antipyrine] the IC50 (mouse COX-2) was > 1000 µM, the IC50 (COX-3 [1]; IC50, μM COX-3, 30 mM arachidonic acid, insect cells, PGE2 by RIA) was 863 µM and the IC50 (COX-3 [1]; IC50 value for COX-3, substrate conditions of 30 μM arachidonic acid) was 862 µM. For the same compound, the IC50 (mouse COX-1) was > 1000 µM.

In the case of `CNc1c(C)n(C)n(-c2ccccc2)c1=O` [4-methylaminoantipyrine], the “concentration reached in plasma” value [2] is given as 104 µM and the “concentration reached in the central nervous system” value [2] is given as 86 µM.

With `CC(=O)Oc1ccccc1C(=O)O` [Aspirin] the IC50 (COX-3 [1]; [4]) was 3.1 µM.

For tunicamycin, the “COX activity in cells treated with tunicamycin” value (COX-3 [3]) was “significantly decreased or abolished”.

For `O=C([O-])c1ccccc1O.[Na+]` [sodium salicylate], the “sensitivity of COX-3 to the drug compared with COX-1 or COX-2” value (COX-3 [1]) was “less sensitive”.

With `O=C(O)Cc1ccccc1Nc1c(Cl)cccc1Cl` [Diclofenac] the IC50 (mouse COX-1) was 0.035 µM.

With `Cn1c(=O)c2c(ncn2C)n(C)c1=O` [Caffeine] the IC50 (mouse COX-2; [5]) was > 1000 µM, the IC50 (COX-3 [1]; [4]) was > 1000 µM and the IC50 (mouse COX-1; [6]) was > 1000 µM.

With `Cc1c(N(C)C)c(=O)n(-c2ccccc2)n1C` [Aminopyrine, 4-dimethylaminoantipyrine] the IC50 (mouse COX-2; [5]) was > 1000 µM, the IC50 (COX-3 [1]; [7]) was 688 µM and the IC50 (mouse COX-1; [6]) was > 1000 µM.

In the case of `O=C1CCC(N2C(=O)c3ccccc3C2=O)C(=O)N1` (stereo not drawn) [Thalidomide], the IC50 (mouse COX-2; [5]) is reported as > 1000 µM, the IC50 (COX-3 [1]; [4]) is reported as > 1000 µM and the IC50 (mouse COX-1; [6]) is reported as > 1000 µM.

For `Cc1c(N(C)CS(=O)(=O)[O-])c(=O)n(-c2ccccc2)n1C.[Na+]` [Dipyrone], the IC50 (mouse COX-2; [5]) was > 1000 µM, the “inhibition of COX-2” value (mouse COX-2; below 1 mM) was “No detectable inhibition” and the IC50 (COX-3 [1]; [7]) was 52 µM. For the same compound, the “concentration inhibiting COX-1, fold higher than COX-3 IC50” value (mouse COX-1; 30 μM arachidonic acid (FIG. 13, panel D)) was 6.6 fold and the IC50 (mouse COX-1; [6]) was 350 µM.

For `CCOc1ccc(NC(C)=O)cc1` [Phenacetin], the IC50 (mouse COX-2; [5]) was > 1000 µM, the IC50 (COX-3 [1]; [7]) was 102 µM and the IC50 (mouse COX-1; [6]) was > 1000 µM.
